Test results reported in the supplement of paper PMC11208160.

Assay: recombinant UMI read abundance after kanamycin selection (control-corrected) (log10(CPM+1)); higher = more efficient recombination; extreme values may be limits of the assay; sequences stand for … in AGTGCAGAGAAAATCGGCCAGTTTTCTCTGCCTGCAGTCCGCATGCCGTGGGACCCCTTGGGTTCTAACCTGTTGCCTAGATTTATGCAGCGGACTGCCTTTCTCCCAAAGTGATAAACCGG…AGGTTGGTTTCACT; site = the 11-nt donor
Outline: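 Values are reported as log10(CPM+1), obtained by converting sequencing counts to CPM, averaging replicates and scaling by control-derived factors. The counts came from recombinant UMIs amplified by PCR across the donor–target junction. These UMIs came from a pooled Escherichia coli screen of donor and donor-binding-loop pairs for the IS621 bridge recombinase, plated with IPTG (0.07 mM) plus kanamycin or left unselected, in two replicates each.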
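Note: IS621 bridge recombinase in Escherichia coli cells against a fixed T5 target plasmid.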

GTTGTTCCATGGACCGGTTTTCCCGGTAATCCGTATTTGGT (site GTTGTGCCTAC)
recombinant UMI read abundance (log10): 0.03

GTTGTTCCATGGACCGGTTTTCCCGGTAATCCGTATTTGGT (site GTTGTTACTAC)
recombinant UMI read abundance (log10): 0.00857

GTTGTTCCATGGACCGGTTTTCCCGGTAATCCGTATTTGGT (site GTTGTTCCTAA)
recombinant UMI read abundance (log10): 0.00913

GTTGTTCCATGGACCGGTTTTCCCGGTAATCCGTATTTGGT (site GTTGTTCCTAC)
recombinant UMI read abundance (log10): 0.00461

GTTGTTCCATGGACCGGTTTTCCCGGTAATCCGTATTTGGT (site GTTGTTCCTAG)
recombinant UMI read abundance (log10): 0

GTTGTTCCATGGACCGGTTTTCCCGGTAATCCGTATTTGGT (site GTTGTTCCTAT)
recombinant UMI read abundance (log10): 0.00563

GTTGTTCCATGGACCGGTTTTCCCGGTAATCCGTATTTGGT (site GTTGTTCCTCC)
recombinant UMI read abundance (log10): 0.0221

GTTGTTCCATGGACCGGTTTTCCCGGTAATCCGTATTTGGT (site GTTGTTCCTGC)
recombinant UMI read abundance (log10): 0.388

GTTGTTCCATGGACCGGTTTTCCCGGTAATCCGTATTTGGT (site GTTGTTCCTTC)
recombinant UMI read abundance (log10): 0.00361

GTTGTTCCATGGACCGGTTTTCCCGGTAATCCGTATTTGGT (site GTTGTTGCTAC)
recombinant UMI read abundance (log10): 0.0845

GTTGTTCCATGGACCGGTTTTCCCGGTAATCCGTATTTGGT (site GTTGTTTCTAC)
recombinant UMI read abundance (log10): 0

GTTGTTCCATGGACCGGTTTTCCCGGTAATCCGTATTTGGT (site GTTTTTCCTAC)
recombinant UMI read abundance (log10): 0

GTTGTTCCATGGACCGGTTTTCCCGGTAATCCGTATTTGGT (site TTTGTTCCTAC)
recombinant UMI read abundance (log10): 0.0162

GTTGTTCCATGGACCGGTTTTCCCGGTAATCCGTATTTGTT (site GTTGTTCCTAA)
recombinant UMI read abundance (log10): 0.42

GTTGTTCCATGGACCGGTTTTCCCGGTAATCCGTATTTGTT (site GTTGTTCCTAC)
recombinant UMI read abundance (log10): 0

GTTGTTCCATGGACCGGTTTTCCCGGTAATCCGTATTTGTT (site GTTGTTCCTAG)
recombinant UMI read abundance (log10): 0

GTTGTTCCATGGACCGGTTTTCCCGGTAATCCGTATTTGTT (site GTTGTTCCTAT)
recombinant UMI read abundance (log10): 0

GTTTCAACATGGACCGGTTTTCCCGGTAATCCGTATTTGAC (site GTTTCAACTGT)
recombinant UMI read abundance (log10): 0.631

GTTTCAGCATGGACCGGTTTTCCCGGTAATCCGTATTTGTG (site GTTTCAGCTCA)
recombinant UMI read abundance (log10): 0.537

GTTTCTGCATGGACCGGTTTTCCCGGTAATCCGTATTTGAG (site GTTTCTGCTCT)
recombinant UMI read abundance (log10): 0.45

TAAAGGCCATGGACCGGTTTTCCCGGTAATCCGTATTTGTA (site TAAAGACCTTA)
recombinant UMI read abundance (log10): 0.00739

TAAAGGCCATGGACCGGTTTTCCCGGTAATCCGTATTTGTA (site TAAAGCCCTTA)
recombinant UMI read abundance (log10): 0.00872

TAAAGGCCATGGACCGGTTTTCCCGGTAATCCGTATTTGTA (site TAAAGGCCTTA)
recombinant UMI read abundance (log10): 0.544

TAAAGGCCATGGACCGGTTTTCCCGGTAATCCGTATTTGTA (site TAAAGTCCTTA)
recombinant UMI read abundance (log10): 0.12

TAACAACCATGGACCGGTTTTCCCGGTAATCCGTATTTGTT (site TAACAACCTAA)
recombinant UMI read abundance (log10): 0.06

TAACGAACATGGACCGGTTTTCCCGGTAATCCGTATTTGCG (site TAACGAACTCG)
recombinant UMI read abundance (log10): 1.63

TAACGAGCATGGACCGGTTTTCCCGGTAATCCGTATTTGGG (site TAAAGAGCTCC)
recombinant UMI read abundance (log10): 0.00891

TAACGAGCATGGACCGGTTTTCCCGGTAATCCGTATTTGGG (site TAACGAGCTCC)
recombinant UMI read abundance (log10): 0.146

TAACGAGCATGGACCGGTTTTCCCGGTAATCCGTATTTGGG (site TAAGGAGCTCC)
recombinant UMI read abundance (log10): 0.143

TAACGAGCATGGACCGGTTTTCCCGGTAATCCGTATTTGGG (site TAATGAGCTCC)
recombinant UMI read abundance (log10): 0.0081

TAACGCACATGGACCGGTTTTCCCGGTAATCCGTATTTGGT (site TAACGCACTAC)
recombinant UMI read abundance (log10): 0.736

TAACGGTCATGGACCGGTTTTCCCGGTAATCCGTATTTGGC (site TAACGGTCTGC)
recombinant UMI read abundance (log10): 2.67

TAACGTTCATGGACCGGTTTTCCCGGTAATCCGTATTTGTA (site TAACGTTCTTA)
recombinant UMI read abundance (log10): 1.16

TAAGCACCATGGACCGGTTTTCCCGGTAATCCGTATTTGAA (site TAAGCACCTTT)
recombinant UMI read abundance (log10): 0.0176

TAAGCCACATGGACCGGTTTTCCCGGTAATCCGTATTTGAC (site TAAGCCACTGT)
recombinant UMI read abundance (log10): 2.78

TAAGCCGCATGGACCGGTTTTCCCGGTAATCCGTATTTGGG (site TAAGCCGCTCC)
recombinant UMI read abundance (log10): 0.0145

TAAGCGCCATGGACCGGTTTTCCCGGTAATCCGTATTTGTG (site AAAGCGCCTCA)
recombinant UMI read abundance (log10): 0.0246

TAAGCGCCATGGACCGGTTTTCCCGGTAATCCGTATTTGTG (site CAAGCGCCTCA)
recombinant UMI read abundance (log10): 0.0975

TAAGCGCCATGGACCGGTTTTCCCGGTAATCCGTATTTGTG (site GAAGCGCCTCA)
recombinant UMI read abundance (log10): 0.032

TAAGCGCCATGGACCGGTTTTCCCGGTAATCCGTATTTGTG (site TAAGCGCCTCA)
recombinant UMI read abundance (log10): 0.248

TAAGCTCCATGGACCGGTTTTCCCGGTAATCCGTATTTGCG (site TAAGCTCCTCG)
recombinant UMI read abundance (log10): 0.303

TAAGGGGCATGGACCGGTTTTCCCGGTAATCCGTATTTGGC (site TAAGGGGCTGC)
recombinant UMI read abundance (log10): 2.41

TAAGTGTCATGGACCGGTTTTCCCGGTAATCCGTATTTGCA (site TAAGTGTCTTG)
recombinant UMI read abundance (log10): 3.32

TAATACTCATGGACCGGTTTTCCCGGTAATCCGTATTTGCA (site TAATACTCTTG)
recombinant UMI read abundance (log10): 2.63

TAATACTCATGGACCGGTTTTCCCGGTAATCCGTATTTGCA (site TCATACTCTTG)
recombinant UMI read abundance (log10): 1.69

TAATACTCATGGACCGGTTTTCCCGGTAATCCGTATTTGCA (site TGATACTCTTG)
recombinant UMI read abundance (log10): 1.6

TAATACTCATGGACCGGTTTTCCCGGTAATCCGTATTTGCA (site TTATACTCTTG)
recombinant UMI read abundance (log10): 1.68

TAATAGACATGGACCGGTTTTCCCGGTAATCCGTATTTGGC (site TAATAGACTGC)
recombinant UMI read abundance (log10): 2.02

TAATCAGCATGGACCGGTTTTCCCGGTAATCCGTATTTGGG (site TAATAAGCTCC)
recombinant UMI read abundance (log10): 0.00976

TAATCAGCATGGACCGGTTTTCCCGGTAATCCGTATTTGGG (site TAATCAGCTCC)
recombinant UMI read abundance (log10): 0.0129

TAATCAGCATGGACCGGTTTTCCCGGTAATCCGTATTTGGG (site TAATGAGCTCC)
recombinant UMI read abundance (log10): 0.00426

TAATCAGCATGGACCGGTTTTCCCGGTAATCCGTATTTGGG (site TAATTAGCTCC)
recombinant UMI read abundance (log10): 0.0124

TAATGAGCATGGACCGGTTTTCCCGGTAATCCGTATTTGGT (site TAATGAGCTAC)
recombinant UMI read abundance (log10): 0.862

TAATGAGCATGGACCGGTTTTCCCGGTAATCCGTATTTGGT (site TAATGAGCTCC)
recombinant UMI read abundance (log10): 0.00749

TAATGAGCATGGACCGGTTTTCCCGGTAATCCGTATTTGGT (site TAATGAGCTGC)
recombinant UMI read abundance (log10): 0

TAATGAGCATGGACCGGTTTTCCCGGTAATCCGTATTTGGT (site TAATGAGCTTC)
recombinant UMI read abundance (log10): 0.0263

TAATGATCATGGACCGGTTTTCCCGGTAATCCGTATTTGGG (site TAATGAACTCC)
recombinant UMI read abundance (log10): 0.0159

TAATGATCATGGACCGGTTTTCCCGGTAATCCGTATTTGGG (site TAATGACCTCC)
recombinant UMI read abundance (log10): 0.00916

TAATGATCATGGACCGGTTTTCCCGGTAATCCGTATTTGGG (site TAATGAGCTCC)
recombinant UMI read abundance (log10): 0.0135

TAATGATCATGGACCGGTTTTCCCGGTAATCCGTATTTGGG (site TAATGATCTCC)
recombinant UMI read abundance (log10): 0.594

TAATGGGCATGGACCGGTTTTCCCGGTAATCCGTATTTGGG (site TAATGAGCTCC)
recombinant UMI read abundance (log10): 0.0138

TAATGGGCATGGACCGGTTTTCCCGGTAATCCGTATTTGGG (site TAATGCGCTCC)
recombinant UMI read abundance (log10): 0.0166

TAATGGGCATGGACCGGTTTTCCCGGTAATCCGTATTTGGG (site TAATGGGCTCC)
recombinant UMI read abundance (log10): 0.0225

TAATGGGCATGGACCGGTTTTCCCGGTAATCCGTATTTGGG (site TAATGTGCTCC)
recombinant UMI read abundance (log10): 0.0203

TAATTAACATGGACCGGTTTTCCCGGTAATCCGTATTTGGT (site TAATTAACTAC)
recombinant UMI read abundance (log10): 0.813

TAATTCCCATGGACCGGTTTTCCCGGTAATCCGTATTTGCT (site AAATTCCCTAG)
recombinant UMI read abundance (log10): 0.531

TAATTCCCATGGACCGGTTTTCCCGGTAATCCGTATTTGCT (site CAATTCCCTAG)
recombinant UMI read abundance (log10): 0.55

TAATTCCCATGGACCGGTTTTCCCGGTAATCCGTATTTGCT (site GAATTCCCTAG)
recombinant UMI read abundance (log10): 1.7

TAATTCCCATGGACCGGTTTTCCCGGTAATCCGTATTTGCT (site TAATTCCCTAG)
recombinant UMI read abundance (log10): 1.65

TACACCGCATGGACCGGTTTTCCCGGTAATCCGTATTTGAG (site TACACCGCTCT)
recombinant UMI read abundance (log10): 0.702

TACACCGCATGGACCGGTTTTCCCGGTAATCCGTATTTGCG (site TACACCGCTCG)
recombinant UMI read abundance (log10): 0.0108

TACACCGCATGGACCGGTTTTCCCGGTAATCCGTATTTGCG (site TCCACCGCTCG)
recombinant UMI read abundance (log10): 0

TACACCGCATGGACCGGTTTTCCCGGTAATCCGTATTTGCG (site TGCACCGCTCG)
recombinant UMI read abundance (log10): 0.0236

TACACCGCATGGACCGGTTTTCCCGGTAATCCGTATTTGCG (site TTCACCGCTCG)
recombinant UMI read abundance (log10): 0.00838

TACAGCTCATGGACCGGTTTTCCCGGTAATCCGTATTTGGA (site TACAGCTCTTC)
recombinant UMI read abundance (log10): 0.841
